# Source: ChEMBL document CHEMBL4038298, “Ester- and amide-containing multiQACs: Exploring multicationic soft antimicrobial agents” (Bioorg Med Chem Lett, 2017)
# Columns and labels:
# [1] = Stability in buffer solution at pH 7 after 16 hrs by LCMS analysis; assay type: physicochemical; conditions: read-out: Stability
# [2] = Stability in buffer solution assessed as decomposition at pH 10 by LCMS analysis; assay type: physicochemical
# [3] = Stability in buffer solution at pH 10 after 16 hrs by LCMS analysis; assay type: physicochemical; conditions: read-out: Stability
# Staphylococcus aureus [4] = test: Antibacterial activity against methicillin-susceptible Staphylococcus aureus SH1000 incubated for 72 hrs; assay type: functional; conditions: SH1000, 72 h
# Enterococcus faecalis = test: Antibacterial activity against Enterococcus faecalis OG1RF incubated for 72 hrs; assay type: functional
# Escherichia coli = test: Antibacterial activity against Escherichia coli MC4100 incubated for 72 hrs; assay type: functional; conditions: str. K-12 substr. MC4100, 72 h
# Pseudomonas aeruginosa = test: Antibacterial activity against Pseudomonas aeruginosa PAO1 incubated for 72 hrs; assay type: functional; conditions: PAO1, 72 h
# Staphylococcus aureus [5] = test: Antibacterial activity against community acquired methicillin-resistant Staphylococcus aureus USA300-0114 incubated for 72 hrs; assay type: functional; conditions: USA300-0114, 72 h
# Staphylococcus aureus [6] = test: Antibacterial activity against hospital-acquired methicillin-resistant Staphylococcus aureus ATCC 33592 incubated for 72 hrs; assay type: functional; conditions: ATCC 33592, 72 h
# [7] = Stability of the compound in pure water up to 72 hrs by LCMS analysis; assay type: physicochemical; conditions: read-out: Stability
# [8] = Solubility of the compound in buffer solution at pH 10 by LCMS analysis; assay type: physicochemical
# [9] = Stability in buffer solution assessed as decomposition at pH 4 by LCMS analysis; assay type: physicochemical
# [10] = Half life at pH 7 buffer solution by LCMS method
# [11] = Ratio of MIC for community acquired methicillin-resistant Staphylococcus aureus USA300-0114 to HC20 for sheep RBC assessed as compound concentration required for <20% hemolysis
# [12] = Ratio of MIC for Enterococcus faecalis OG1RF to HC20 for sheep RBC assessed as compound concentration required for <20% hemolysis
# [13] = Stability of the compound in pure water by LCMS method; assay type: physicochemical
SMILES,remaining at 16 h [1] [%],Stability [2],remaining at 16 h [3] [%],MIC (Staphylococcus aureus [4]) [µM],MIC (Enterococcus faecalis) [µM],MIC (Escherichia coli) [µM],MIC (Pseudomonas aeruginosa) [µM],MIC (Staphylococcus aureus [5]) [µM],MIC (Staphylococcus aureus [6]) [µM],remaining at 72 h [7] [%],solubility [8],Stability [9],T1/2 [10] [h],Ratio [11],Ratio [12],Stability [13]
CCCCCCCCCCNC(=O)C[N+](C)(C)CCCN(CCC[N+](C)(C)CC(=O)NCCCCCCCCCC)CCC[N+](C)(C)CC(=O)NCCCCCCCCCC.[Br-].[Br-].[Br-],> 80,Unstable,> 80,1,1,1,8,0.5,1,≥ 90,Insoluble,–,–,–,–,–
CCCCCCCCCCOC(=O)C[N+](C)(C)CCN1CC[N+](C)(CC(=O)OCCCCCCCCCC)CC1.[Br-].[Br-],–,Unstable,–,2,4,2,16,2,2,≥ 90,–,Unstable,3,–,–,–
CCCCCCCCCCOC(=O)C[N+](C)(C)CCCN(CCC[N+](C)(C)CC(=O)OCCCCCCCCCC)CCC[N+](C)(C)CC(=O)OCCCCCCCCCC.[Br-].[Br-].[Br-],–,Unstable,–,2,8,8,16,4,4,≥ 90,–,Unstable,3,–,–,–
CCCCCCCCCCCCCCOC(=O)C[N+](C)(C)CCCN(CCC[N+](C)(C)CC(=O)OCCCCCCCCCCCCCC)CCC[N+](C)(C)CC(=O)OCCCCCCCCCCCCCC.[Br-].[Br-].[Br-],–,–,–,125,16,32,250,16,32,–,–,–,–,4,4,Stable
CCCCCCCCCCCCCCOC(=O)C[N+](C)(C)CCC[N+](C)(CCC[N+](C)(C)CC(=O)OCCCCCCCCCCCCCC)CC(=O)OCCCCCCCCCCCCCC.[Br-].[Br-].[Br-],–,–,–,63,32,63,250,16,32,–,–,–,–,4,–,Stable
CCCCCCCCCCNC(=O)C[N+](C)(C)CCN1CC[N+](C)(CC(=O)NCCCCCCCCCC)CC1.[Br-].[Br-],> 80,Unstable,> 80,0.5,0.5,1,2,0.5,0.5,≥ 90,Insoluble,–,–,–,–,–
